Results: US20250084026A1, “NOVEL SALT OF 1-SULFONYL PYRROLE DERIVATIVE, PREPARATION METHOD THEREOF AND PHARMACEUTICAL COMPOSITION COMPRISING THEREOF” (ILDONG PHARMACEUTICAL CO., LTD., priority 2021, published 2025)
In brackets after ≈: the same amount, converted by molar mass. Read-outs that look alike come from different tables or passages of the source.

Assays:
Format in all cases: physicochemical
[1] = Drug stability under stress condition, 60° C. open, XRPD and HPLC; conditions: for HPLC peak RT 7.423 min, RRT 0.74 / HPLC peak RT 10.063 min, RRT 1.00 / HPLC peak RT 10.277 min, RRT 1.02: in %; for Stability under harsh conditions (in words): up to Week 2
Procedure: 10 mg and 40 mg of the free base and the fumaric acid salt of 1-(5-(2-fluorophenyl)-4-methoxy-1-((6-methoxypyridin-3-yl) sulfonyl)-1H-pyrrol-3-yl)-N-methylmethanamine were weighed into each vial and stored under stress conditions to investigate stability.
The stress conditions are as follows: • high temperature open room condition: 60° C.; • The bottle neck of the vial was wrapped with aluminum foil with pinholes to avoid contamination, and the samples were analyzed by XRPD and HPLC at the onset (Day 0), week 1 and week 2.

[2] = Solubility in bio-relevant media (water, SGF, FaSSIF, FeSSIF), HPLC; conditions: for solubility at 1 h / solubility at 24 h: thermodynamic from solid; for solubility at 1 h: read-out: Solubility-1 h concentration; for solubility at 24 h: read-out: Solubility-24 h concentration
Procedure: Solubility in bio-relevant media, i.e., stimulated gastric fluid (SGF), fasted state simulated intestinal fluid (FaSSIF), and fed state simulated intestinal fluid (FeSSIF) of the free base and the fumarate salt of 1-(5-(2-fluorophenyl)-4-methoxy-1-((6-methoxypyridin-3-yl) sulfonyl)-1H-pyrrole-3-yl)-N-methylmethanamine that was confirmed through the salt screening analysis result, was confirmed.
Buffers for the bio-relevant media were prepared as follows. • Water: Laboratory Milli-Q purified water. • SGF (Stimulated Gastric Fluid): 2.0 g of sodium chloride and 7 mL of hydrochloric acid dissolved in 1000 ml of water was used. • FaSSIF (Fasted State Simulated Intestinal Fluid): A commercial product purchased from Bio-Relevant Company and manufactured according to instructions was used. • FeSSIF (Fed State Simulated Intestinal Fluid): A commercial product purchased from Bio-Relevant Company and prepared according to instructions was used.
For the experiment, about 10 mg of compound (10 mg as free base form) was weighed into each glass vial and then 1 mL of medium was added (final concentration of 10 mg/mL). Then, the sample was continuously stirred in a magnetic stirrer at 37° C. at a speed of 200 rpm. After stirring for 1 hour and 24 hours, 0.5 mL of the sample solution was transferred to a 1.5 mL centrifuge tube and centrifuged at 12,000 rpm for 5 minutes. The supernatant was diluted with suitable methanol and analyzed by HPLC.
The free base was selected as a standard sample to quantify the solubility, and about 10 mg of the free base was weighed into a 25 mL flask and dissolved in methanol to the curve.
The residue of the compound in water was tested by XRPD to determine the solid state.

[3] = Thermal gravimetric analysis (TGA) weight loss
Procedure: Using Pyris 1 TGA manufactured by PerkinElmer, Inc., a compound sample (about 5 mg) was weighed in pans under nitrogen purge at a ramp rate of 20° C./min over the range of 30 to 300° C.

[4] = Dynamic vapor sorption (DVS) hygroscopicity; conditions: 25° C., 0%~95%~0% RH cycle; compared to the known hygroscopicity evaluation standard
Procedure: Using DVS intrinsic manufactured by Surface Measurement Systems Ltd, about 20 mg of the sample was tested for water sorption/desorption profiles at 25° C. under a 0%˜95%˜0% relative humidity (RH) cycle using the following parameters.
Equilibrium: dm/dt: 0.01%/min.
Range of RH (%) measurement step: 0%˜95%˜0%; RH (%) measurement step: 5%

[5] = Drug stability at 40° C., 75% RH for 8 weeks (XRPD, TGA, HPLC)
Procedure: In order to confirm the stability of the fumarate salt of 1-(5-(2-fluorophenyl)-4-methoxy-1-((6-methoxypyridin-3-yl) sulfonyl)-1H-pyrrole-3-yl)-N-methylmethanamine prepared under an isopropyl alcohol solvent, water sorption and/or hydrate formation were confirmed under conditions of 75% RH at 40° C. for 8 weeks.
To proceed with the experiment, 100 mg of the fumarate salt of 1-(5-(2-fluorophenyl)-4-methoxy-1-((6-methoxypyridin-3-yl) sulfonyl)-1H-pyrrole-3-yl)-N-methylmethanamine was put in a vial with a wide mouth (Experimental group 1), and the other sample was put in a vial that is double-packed with a polyethylene bag (Experimental group 2). Then, both samples were placed inside a 40° C., 75% RH chamber and monitored at 2-week intervals.
The XRPD values were checked every two weeks to identify whether or not there was a change in the crystalline form, and the results are shown in Table 11.

[6] = Week 2, 4, 6 and 8, Experimental groups 1 and 2

SMILES: CNCc1cn(S(=O)(=O)c2ccc(OC)nc2)c(-c2ccccc2F)c1OC [Free base, 1-(5-(2-fluorophenyl)-4-methoxy-1-((6-methoxypyridin-3-yl)sulfonyl)-1H-pyrrol-3-yl)-N-methylmethanamine]
- % Impurities ([1]; 60° C., Week 1): 20.94%
- Assay % ([1]; 60° C., Week 1): 67.44%
- Crystalline form (XRPD) ([1]; 60° C., Week 1): Melted
- HPLC peak RT 6.797 min, RRT 0.68 ([1]; 60° C., Week 1): 0.43%
- HPLC peak RT 7.563 min, RRT 0.75 ([1]; 60° C., Week 1): 1%
- HPLC peak RT 9.327 min, RRT 0.93 ([1]; 60° C., Week 1): 0.18%
- HPLC peak RT 10.813 min, RRT 1.07 ([1]; 60° C., Week 1): 0.57%
- HPLC peak RT 7.423 min, RRT 0.74 ([1]; 60° C., Week 1): 18.86
- HPLC peak RT 10.063 min, RRT 1.00 ([1]; 60° C., Week 1): 79.06
- HPLC peak RT 10.277 min, RRT 1.02 ([1]; 60° C., Week 1): 9.95
- % Impurities ([1]; 60° C., Week 2): 35.00%
- Assay % ([1]; 60° C., Week 2): 60.29%
- Crystalline form (XRPD) ([1]; 60° C., Week 2): Melted
- HPLC peak RT 6.797 min, RRT 0.68 ([1]; 60° C., Week 2): 0.31%
- HPLC peak RT 7.563 min, RRT 0.75 ([1]; 60° C., Week 2): 4.12%
- HPLC peak RT 9.327 min, RRT 0.93 ([1]; 60° C., Week 2): 0.14%
- HPLC peak RT 10.813 min, RRT 1.07 ([1]; 60° C., Week 2): 0.53%
- HPLC peak RT 7.423 min, RRT 0.74 ([1]; 60° C., Week 2): 13.51
- HPLC peak RT 10.063 min, RRT 1.00 ([1]; 60° C., Week 2): 65.0
- HPLC peak RT 10.277 min, RRT 1.02 ([1]; 60° C., Week 2): 16.38
- Stability under harsh conditions (in words) ([1]; 60° C.): high impurity content
- % Impurities ([1]; Day 0): 0.85%
- Assay % ([1]; Day 0): 100.00%
- Crystalline form (XRPD) ([1]; Day 0): Free form
- HPLC peak RT 9.327 min, RRT 0.93 ([1]; Day 0): 0.18%
- HPLC peak RT 10.813 min, RRT 1.07 ([1]; Day 0): 0.66%
- HPLC peak RT 10.063 min, RRT 1.00 ([1]; Day 0): 99.15
- Solubility-24 h concentration ([2]; water, 37° C., 24 h): 8630 µg/mL (≈ 21.3 mM)

SMILES: CNCc1cn(S(=O)(=O)c2ccc(OC)nc2)c(-c2ccccc2F)c1OC.O=C(O)/C=C/C(=O)O [Fumarate salt, fumarate salt of 1-(5-(2-fluorophenyl)-4-methoxy-1-((6-methoxypyridin-3-yl)sulfonyl)-1H-pyrrole-3-yl)-N-methylmethanamine]
- TGA weight loss (% w/w) ([3]; 120° C., listed as Example 3): ~0.0307%,
- Hygroscopicity (DVS, in words) [4]: very low hygroscopicity
- % Impurities ([1]; 60° C., Week 1): 0.76%
- Assay % ([1]; 60° C., Week 1): 105.69%
- Crystalline form (XRPD) ([1]; 60° C., Week 1): Crystalline
- HPLC peak RT 9.327 min, RRT 0.93 ([1]; 60° C., Week 1): 0.17%
- HPLC peak RT 10.813 min, RRT 1.07 ([1]; 60° C., Week 1): 0.59%
- HPLC peak RT 10.063 min, RRT 1.00 ([1]; 60° C., Week 1): 99.24
- % Impurities ([1]; 60° C., Week 2): 0.80%
- Assay % ([1]; 60° C., Week 2): 94.74%
- Crystalline form (XRPD) ([1]; 60° C., Week 2): Crystalline
- HPLC peak RT 9.327 min, RRT 0.93 ([1]; 60° C., Week 2): 0.18%
- HPLC peak RT 10.813 min, RRT 1.07 ([1]; 60° C., Week 2): 0.62%
- HPLC peak RT 10.063 min, RRT 1.00 ([1]; 60° C., Week 2): 99.20
- Stability under harsh conditions (in words) ([1]; 60° C.): excellent stability
- % Impurities ([1]; Day 0): 0.77%
- Assay % ([1]; Day 0): 100.00%
- Crystalline form (XRPD) ([1]; Day 0): Crystalline
- HPLC peak RT 9.327 min, RRT 0.93 ([1]; Day 0): 0.17%
- HPLC peak RT 10.813 min, RRT 1.07 ([1]; Day 0): 0.6%
- HPLC peak RT 10.063 min, RRT 1.00 ([1]; Day 0): 99.23
- Solubility (in words) ([2]; all of SGF, FaSSIF, and FeSSIF): excellent solubility
- Solubility (in words) ([2]; fasted state simulated intestinal fluid (FaSSIF)): very good solubility
- solubility at 1 h ([2]; simulated gastric fluid, SGF, 37° C.): > 10000 µg/mL
- solubility at 24 h ([2]; simulated gastric fluid, SGF, 37° C., 24 h): > 10000 µg/mL
- solubility at 1 h ([2]; FaSSIF, 37° C.): 7910 µg/mL
- solubility at 24 h ([2]; FaSSIF, 37° C., 24 h): 7580 µg/mL
- solubility at 1 h ([2]; FeSSIF, 37° C.): 4500 µg/mL
- solubility at 24 h ([2]; FeSSIF, 37° C., 24 h): 4440 µg/mL
- solubility at 1 h ([2]; water, 37° C.): 6390 µg/mL
- solubility at 24 h ([2]; water, 37° C., 24 h): 5320 µg/mL
- Polymorphic change vs initial XRPD of crystalline Form I ([5]; 8 weeks): no polymorphic change
- Whether or not XRPD value changed ([5]; Experimental group 1 (vial with a wide mouth), Week 2): Same
- Whether or not XRPD value changed ([5]; Experimental group 1 (vial with a wide mouth), Week 2 (second line so printed, r7)): Same
- Whether or not XRPD value changed ([5]; Experimental group 1 (vial with a wide mouth), Week 6): Same
- Whether or not XRPD value changed ([5]; Experimental group 1 (vial with a wide mouth), Week 8): Same
- Whether or not XRPD value changed ([5]; Experimental group 2 (vial double-packed with polyethylene bag), Week 2): Same
- Whether or not XRPD value changed ([5]; Experimental group 2 (vial double-packed with polyethylene bag), Week 2 (second line so printed, r7)): Same
- Whether or not XRPD value changed ([5]; Experimental group 2 (vial double-packed with polyethylene bag), Week 6): Same
- Whether or not XRPD value changed ([5]; Experimental group 2 (vial double-packed with polyethylene bag), Week 8): Same
- Hygroscopicity (TGA analysis, in words) [5, 6]: significantly low hygroscopicity
- Purity (HPLC analysis, in words) [5, 6]: high purity

SMILES: CNCc1cn(S(=O)(=O)c2ccc(OC)nc2)c(-c2ccccc2F)c1OC.O=P(O)(O)O [phosphate salt, Phosphate Salt of 1-(5-(2-fluorophenyl)-4-methoxy-1-((6-methoxypyridin-3-yl)sulfonyl)-1H-pyrrol-3-yl)-N-methylmethanamine]
- Hygroscopicity (from TGA, in words) [3]: high hygroscopicity
- TGA weight loss [3]: 1.0189%
